# Patent US20250255981A1, “IMMUNOMODULATORY ANTIBODY-DRUG CONJUGATES” (Seagen Inc., priority 2022, published 2025)
# How the values were obtained:
# 786-O = test: Cancer cell direct cytotoxicity assay, 786-O; type: cell-based, human; settings: 96 hours, concentration required to reduce cell viability to 50%, read-out: Compound X50
# Experimental: (§1) Cancer cells were counted and plated in 40 μL complete growth media in 384-well, white-walled tissue culture treated plates (Corning). Cell plates were incubated at 37° C. and with 5% CO2 overnight to allow the cells to equilibrate. Stock solutions containing ADCs or free drugs were serially diluted in RPMI-1640+20% fetal bovine serum (FBS). 10 μL of each concentration were then added to each cell plate in duplicate. Cells were then incubated at 37° C. and with 5% CO2 for 96 hours, upon which, the cell plates were removed from the incubator and allowed to cool to room temperature for 30 minutes prior to analysis. CellTiter-Glo® luminescent assay reagent (Promega Corporation, Madison, WI) was prepared according to Promega's protocol. 10 μL of CellTiter-Glo® were added to assay plates using a Formulatrix Tempest liquid handler (Formulatrix) and the plates were protected from light for 30 minutes at room temperature. The luminescence of the samples was measured using an EnVision Multimode plate reader (Perkin Elmer, Waltham, MA). Raw data were analyzed in Graphpad Prism (San Diego, CA) using a nonlinear, 4-parameter curve fit model [Y=Bottom+(Top-Bottom)/(1+10^((Log EC50−X)*HillSlope))]. Results are reported as X50 values, which are defined as the concentration of ADC or free drug required to reduce cell viability to 50%.
# A2058 = test: Cancer cell direct cytotoxicity assay, A2058; type: cell-based, human; settings: 96 hours, read-out: Compound X50
# Experimental: as §1
# DELBVR = test: Cancer cell direct cytotoxicity assay, DELBVR; type: cell-based, human; settings: 96 hours, read-out: Compound X50
# Experimental: as §1
# [1] = tested on: THP1-Dual™ cells (IRF-Lucia luciferase reporter); test: THP1-Dual™ cell reporter assay; type: cell-based, human
# Outline: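 THP1-Dual cells (~100,000 per well) exposed to compound or ADC in supplemented RPMI-1640 with 10% FBS; supernatant taken at 24 h for compounds or 48 h for ADCs. Secreted IRF-driven Lucia luciferase measured by luminescence with QUANTI-Luc reagent.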
# MDAMB231 = test: Cancer cell direct cytotoxicity assay, MDAMB231; type: cell-based, human; settings: 96 hours, read-out: Compound X50
# Experimental: as §1
# SU-DHL-4 = test: Cancer cell direct cytotoxicity assay, SU-DHL-4; type: cell-based, human; settings: 96 hours, read-out: Compound X50
# Experimental: as §1
# MOLM-13 = test: Cancer cell direct cytotoxicity assay, MOLM-13; type: cell-based, human; settings: 96 hours, read-out: Compound X50
# Experimental: as §1
# Karpas299 = test: Cancer cell direct cytotoxicity assay, Karpas299; type: cell-based, human; settings: 96 hours, read-out: Compound X50
# Experimental: as §1
# Ls174T = test: Cancer cell direct cytotoxicity assay, Ls174T; type: cell-based, human; settings: 96 hours, read-out: Compound X50
# Experimental: as §1
# L540cy = test: Cancer cell direct cytotoxicity assay, L540cy; type: cell-based, human; settings: 96 hours, read-out: Compound X50
# Experimental: as §1
# BxPC3 = test: Cancer cell direct cytotoxicity assay, BxPC3; type: cell-based, human; settings: 96 hours, read-out: Compound X50
# Experimental: as §1
# DEL = test: Cancer cell direct cytotoxicity assay, DEL; type: cell-based, human; settings: 96 hours, read-out: Compound X50
# Experimental: as §1
# Renca tumor-bearing mice = test: In vivo cytokine assay, Renca tumor-bearing mice; parameters: species or system mouse; RANTES in plasma / TNFa in plasma: unit not given here; settings: for IFNγ in plasma / IL1β in plasma / IL12p70 in plasma / IL-6 in plasma / IL-10 in plasma / IP10 in plasma / MCP-1 in plasma / MIP1α in plasma / MIP1β in plasma / RANTES in plasma / TNFa in plasma: 1.48 mg/kg
# Experimental: Cytokines were measured in mouse plasma harvested at 3, 6, 24, or 48 hours after treatment with compounds or ADCs using a Milliplex MAP mouse cytokine/chemokine magnetic bead panel assay kit (MCYTOMAG-70k custom 11-plex kit: MCP1, MIP1a, MIP1(3, TNFα, IFNγ, IL-10, IL-12p70, IL-6, IL-1β, IP10, RANTES) and analyzed using a Luminex™ MAGPIX™ Instrument System. Values that were outside of the standard curve range (<3.2 or […]) were either excluded from calculation of the mean values or, when indicated, converted to […] for calculation of the mean values.
# Renca cancer cells (ATCC) were cultured in RPMI-1640 (ATCC) with 10% heat-inactivated fetal bovine serum, Pen-Strep (100 U/mL-100 μg/mL), MEM non-essential amino acids (1×), sodium pyruvate (1 mM), and L-glutamine (2 mM). Renca cancer cells were implanted (2*10^6 cells in 200 μL 25% Matrigel) subcutaneously into Balb/c female mice. In some experiments, Renca tumor cells were engineered to express the indicated murine or human target antigen.
# (§2) When tumor volumes reached 100 mm^3, the mice were dosed with either compounds or ADCs by intraperitoneal or intravenous injection at the indicated dosing schedule and tumor volumes were monitored twice weekly. Compounds were formulated in 40% PEG400 in saline.
# (§3) A syngeneic system was used to assess the ability of the STING agonist ADCs to induce immune responses in vivo and drive an anti-tumor immune response. The Renca system is a subcutaneous, mouse renal adenocarcinoma model. Female Balb/c mice were implanted with 2×10^6 Renca cells subcutaneously in the flank on day 0. When mean tumor size of 100 mm^3 (measured by using the formula Volume (mm^3)=0.5*Length*Width^2 where length is the longer dimension) was reached mice were randomized into treatment groups of ≥5 mice per group. Animals were then treated intraperitoneally (ADCs or compounds) or intravenously (compounds) with the indicated treatment every 7 days, for 3 doses total (or as indicated). Tumor length and width and the weight of the animals was measured throughout the study and tumor volume was calculated using the formula above. Animals were followed until the tumor volume reached ˜1000 mm^3; animals were then euthanized.
# CT26 cancer cells = test: In vivo anti-tumor activity, CT26 tumor model; parameters: species or system mouse; settings: CT26, q7dx3
# Experimental: CT26 cancer cells (ATCC) were cultured in RPMI 1640 modified with 1 mM Sodium Pyruvate, 10 mM HEPES, 2.8 mL 45% Glucose (1.25 g) and supplemented with 10% fetal bovine serum and 1% Pen/Strep/Glutamine. CT26 cancer cells were implanted (0.5*10^6 cells in 200 uL serum-free RPMI 1640) subcutaneously into Balb/c mice.
# Renca cancer cells = test: In vivo anti-tumor activity, Renca tumor model
# Experimental: In some experiments, Renca tumor cells were engineered to express the indicated murine or human target antigen.
# as §2, §3
# [2] = tested on: wild type (WT) murine bone marrow-derived macrophages; test: Bone marrow-derived macrophage assay, wild type; type: cell-based, mouse; settings: 24 hours
# Experimental: Potency of the compounds described herein was evaluated using mouse bone-marrow derived macrophages cultured from wild type (C57BL/6J, the Jackson Laboratory #000664) or STING-deficient (C57BL/6J-Sting1^gt/J, the Jackson Laboratory #017537) mice. Briefly, mouse bone marrow cells were cultured for 7-10 days in RPMI-1640 (Gibco) with 10% heat-inactivated fetal bovine serum, Pen-Strep (100 U/mL-100 […], Gibco), HEPES (10 mM, Gibco), sodium pyruvate (1 mM, Gibco), GlutaMAX (1×, Gibco), beta-mercaptoethanol ([…], Gibco) and 20-40 ng/mL murine M-CSF (Peprotech, #315-02). Cells were plated in a 96-well flat bottom tissue culture-treated clear polystyrene plate (Corning Costar #3596) at ˜100,000 cells per well in 200 μL with the indicated concentration of the compound. The supernatant was harvested at 24 hours and cytokines were measured using a Milliplex MAP mouse cytokine/chemokine magnetic bead panel assay kit (MCYTOMAG-70k custom 11-plex kit: MCP1, MIP1α, MIP1β, TNFα, IFNγ, IL-10, IL-12p70, IL-1β, IL-6, IP10, RANTES) and analyzed using a Luminex™ MAGPIX™ Instrument System.
smiles,measurement,setting,value
CCn1nc(C)cc1C(=O)Nc1nc2cc(C(N)=O)cc(OC)c2n1C/C=C/Cn1c(NC(=O)c2cc(C)nn2CC)nc2cc(C(N)=O)cc(OCCCN(C)C(=O)CCN3C(=O)CC(SC[C@H](N)C(=O)O)C3=O)c21 (stereo partly drawn) [compound 16],IC50,786-O,> 1000 nM
same,IC50,A2058,> 1000 nM
same,IC50,DELBVR,7 nM
same,EC50,"[1]; small molecules, 24 h, >10,000 nM = minimal activity up to 10 μM, some values average of multiple experiments, read-out: EC50, Lucia reporter signal",52 nM
same,IC50,MDAMB231,> 1000 nM
same,IC50,SU-DHL-4,> 1000 nM
same,IC50,MOLM-13,27 nM
same,IC50,Karpas299,> 1000 nM
same,IC50,Ls174T,> 1000 nM
same,IC50,L540cy,29 nM
same,IC50,BxPC3,> 1000 nM
same,IC50,DEL,4 nM
"CCn1nc(C)cc1C(=O)Nc1nc2cc(C(N)=O)cc(O)c2n1C/C=C/Cn1c(NC(=O)c2cc(C)nn2CC)nc2cc(C(N)=O)cc(OC)c21 [compound 1, (E)-1-(4-(5-carbamoyl-2-(1-ethyl-3-methyl-1H-pyrazole-5-carboxamido)-7-hydroxy-1H-benzo[d]imidazol-1-yl)but-2-en-1-yl)-2-(1-ethyl-3-methyl-1H-pyrazole-5-carboxamido)-7-methoxy-1H-benzo[d]imidazole-5-carboxamide]",IFNγ in plasma,Renca tumor-bearing mice; 3 h after treatment,< 3.2 pg/mL
same,IL1β in plasma,Renca tumor-bearing mice; 3 h after treatment,0.7 pg/mL
same,IL12p70 in plasma,Renca tumor-bearing mice; 3 h after treatment,174 pg/mL
same,IL-6 in plasma,Renca tumor-bearing mice; 3 h after treatment,95.7 pg/mL
same,IL-10 in plasma,Renca tumor-bearing mice; 3 h after treatment,48.8 pg/mL
same,IP10 in plasma,Renca tumor-bearing mice; 3 h after treatment,703 pg/mL
same,MCP-1 in plasma,Renca tumor-bearing mice; 3 h after treatment,168 pg/mL
same,MIP1α in plasma,Renca tumor-bearing mice; 3 h after treatment,55.6 pg/mL
same,MIP1β in plasma,Renca tumor-bearing mice; 3 h after treatment,362 pg/mL
same,RANTES in plasma,Renca tumor-bearing mice; 3 h after treatment,10.6
same,TNFa in plasma,Renca tumor-bearing mice; 3 h after treatment,3.6
same,IFNγ in plasma,Renca tumor-bearing mice; 6 h after treatment,0.2 pg/mL
same,IL1β in plasma,Renca tumor-bearing mice; 6 h after treatment,1.5 pg/mL
same,IL12p70 in plasma,Renca tumor-bearing mice; 6 h after treatment,< 3.2 pg/mL
same,IL-6 in plasma,Renca tumor-bearing mice; 6 h after treatment,6.8 pg/mL
same,IL-10 in plasma,Renca tumor-bearing mice; 6 h after treatment,0.8 pg/mL
same,IP10 in plasma,Renca tumor-bearing mice; 6 h after treatment,3390 pg/mL
same,MCP-1 in plasma,Renca tumor-bearing mice; 6 h after treatment,796 pg/mL
same,MIP1α in plasma,Renca tumor-bearing mice; 6 h after treatment,38.9 pg/mL
same,MIP1β in plasma,Renca tumor-bearing mice; 6 h after treatment,169 pg/mL
same,RANTES in plasma,Renca tumor-bearing mice; 6 h after treatment,18.4
same,TNFa in plasma,Renca tumor-bearing mice; 6 h after treatment,1.9
same,IFNγ in plasma,Renca tumor-bearing mice; 24 h after treatment,< 3.2 pg/mL
same,IL1β in plasma,Renca tumor-bearing mice; 24 h after treatment,0.8 pg/mL
same,IL12p70 in plasma,Renca tumor-bearing mice; 24 h after treatment,140 pg/mL
same,IL-6 in plasma,Renca tumor-bearing mice; 24 h after treatment,13.5 pg/mL
same,IL-10 in plasma,Renca tumor-bearing mice; 24 h after treatment,34.6 pg/mL
same,IP10 in plasma,Renca tumor-bearing mice; 24 h after treatment,551 pg/mL
same,MCP-1 in plasma,Renca tumor-bearing mice; 24 h after treatment,333 pg/mL
same,MIP1α in plasma,Renca tumor-bearing mice; 24 h after treatment,69.9 pg/mL
same,MIP1β in plasma,Renca tumor-bearing mice; 24 h after treatment,70.7 pg/mL
same,RANTES in plasma,Renca tumor-bearing mice; 24 h after treatment,15.6
same,TNFa in plasma,Renca tumor-bearing mice; 24 h after treatment,2.0
same,systemic pro-inflammatory cytokine (IL-6 and TNF) production,Renca tumor-bearing mice; plasma,induced very little pro-inflammatory cytokine (IL-6 and TNF) production
same,"relative potency of free drug, Lucia reporter","[1]; free drug, 24 h (48 h elsewhere in the source)","significantly more potent than (2′, 3′)-Rp,Rpc-diAMPS disodium (Compound B)"
same,tumor growth,CT26 cancer cells,minimal tumor growth delay
same,tumor growth / anti-tumor activity,"Renca cancer cells; Renca, q7dx3",some tumor growth delay was observed
same,average weight loss,Renca cancer cells; after the 1st and 2nd dose of the treatment,< −5%
same,cytokine production,[2],induced cytokine production
